# Reference: PubChem BioAssay (NCI)
#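 In this assay, cells in 96-well plates receive the compound at five concentrations for 48 hours. Endpoints are linearly interpolated between the surrounding concentrations. Here, GI50 denotes the concentration required for 50% inhibition of growth. TGI: concentration producing complete growth inhibition.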
# Key:
# Experiment in all cases: inhibition of tumour cell growth, NCI panel, 48 h
# A549 NSCLC = system: A549 NSCLC
# NCI/ADR-RES ovarian = system: NCI/ADR-RES ovarian
# SF-295 CNS = system: SF-295 CNS
# SK-MEL-5 melanoma = system: SK-MEL-5 melanoma
# MALME-3M melanoma = system: MALME-3M melanoma
# RXF 393 renal = system: RXF 393 renal
# BT-549 breast = system: BT-549 breast
# RPMI-8226 leukemia = system: RPMI-8226 leukemia
# U251 CNS = system: U251 CNS
# COLO 205 colon = system: COLO 205 colon
# HL-60(TB) leukemia = system: HL-60(TB) leukemia
# MDA-MB-231 breast = system: MDA-MB-231 breast
# HOP-92 NSCLC = system: HOP-92 NSCLC
# NCI-H23 lung = system: NCI-H23 lung
# MCF7 breast = system: MCF7 breast
# PC-3 prostate = system: PC-3 prostate
# SK-MEL-2 melanoma = system: SK-MEL-2 melanoma
# UO-31 renal = system: UO-31 renal
# SK-MEL-28 melanoma = system: SK-MEL-28 melanoma
# NCI-H522 lung = system: NCI-H522 lung
# OVCAR-3 ovarian = system: OVCAR-3 ovarian
# SF-268 CNS = system: SF-268 CNS
# SF-539 CNS = system: SF-539 CNS
# SN12C renal = system: SN12C renal
# SK-OV-3 ovarian = system: SK-OV-3 ovarian
# HCC-2998 colon = system: HCC-2998 colon
# HCT-116 colon = system: HCT-116 colon
# DU-145 prostate = system: DU-145 prostate
structure (smiles),measurement,setting,value
COc1ccc(-c2cc(/C=C3\C(=O)Nc4ccc(OC)cc43)[nH]n2)cc1,GI50,A549 NSCLC,> 100 µM
same,TGI,A549 NSCLC,> 100 µM
same,GI50,NCI/ADR-RES ovarian,31.8 µM
same,TGI,NCI/ADR-RES ovarian,> 100 µM
same,GI50,SF-295 CNS,2.89 µM
same,TGI,SF-295 CNS,> 100 µM
same,GI50,SK-MEL-5 melanoma,4.46 µM
same,TGI,SK-MEL-5 melanoma,> 100 µM
same,GI50,MALME-3M melanoma,> 100 µM
same,TGI,MALME-3M melanoma,> 100 µM
same,GI50,RXF 393 renal,55 µM
same,TGI,RXF 393 renal,> 100 µM
same,GI50,BT-549 breast,> 100 µM
same,TGI,BT-549 breast,> 100 µM
same,GI50,RPMI-8226 leukemia,> 100 µM
same,TGI,RPMI-8226 leukemia,> 100 µM
same,GI50,U251 CNS,31.5 µM
same,TGI,U251 CNS,> 100 µM
same,GI50,COLO 205 colon,4.53 µM
same,TGI,COLO 205 colon,> 100 µM
same,GI50,HL-60(TB) leukemia,0.821 µM
same,TGI,HL-60(TB) leukemia,> 100 µM
same,GI50,MDA-MB-231 breast,> 100 µM
same,TGI,MDA-MB-231 breast,> 100 µM
same,GI50,HOP-92 NSCLC,> 100 µM
same,TGI,HOP-92 NSCLC,> 100 µM
same,GI50,NCI-H23 lung,> 100 µM
same,TGI,NCI-H23 lung,> 100 µM
same,GI50,MCF7 breast,0.732 µM
same,TGI,MCF7 breast,> 100 µM
same,GI50,PC-3 prostate,> 100 µM
same,TGI,PC-3 prostate,> 100 µM
same,GI50,SK-MEL-2 melanoma,43.5 µM
same,TGI,SK-MEL-2 melanoma,> 100 µM
same,GI50,UO-31 renal,> 100 µM
same,TGI,UO-31 renal,> 100 µM
same,GI50,SK-MEL-28 melanoma,> 100 µM
same,TGI,SK-MEL-28 melanoma,> 100 µM
same,GI50,NCI-H522 lung,11 µM
same,TGI,NCI-H522 lung,> 100 µM
same,GI50,OVCAR-3 ovarian,68.9 µM
same,TGI,OVCAR-3 ovarian,> 100 µM
same,GI50,SF-268 CNS,27.4 µM
same,TGI,SF-268 CNS,> 100 µM
same,GI50,SF-539 CNS,6.67 µM
same,TGI,SF-539 CNS,> 100 µM
same,GI50,SN12C renal,> 100 µM
same,TGI,SN12C renal,> 100 µM
same,GI50,SK-OV-3 ovarian,73.2 µM
same,TGI,SK-OV-3 ovarian,> 100 µM
same,GI50,HCC-2998 colon,> 100 µM
same,TGI,HCC-2998 colon,> 100 µM
same,GI50,HCT-116 colon,9.08 µM
same,TGI,HCT-116 colon,> 100 µM
same,GI50,DU-145 prostate,> 100 µM
same,TGI,DU-145 prostate,> 100 µM
